Source: ChEMBL document CHEMBL1201862, “PubChem BioAssay data set” (2004)
Calls of active or inactive are those of the source.

Columns and labels:
[1] = molecular target: T1, Heat shock factor protein 1 (Mus musculus, UniProt P38532); test: HSF1 potentiators in luciferase reporter cells, confirmation, cell-based, NIH3T3, luminescence, dose retest (AID 435004); format: functional;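 also: stress induced by proteasome inhibitor MG132 added 30 min after compound; luciferase reporter driven by HSF1 response element in NIH3T3 cells; actives raise luminescence as potentiators of the MG132 stress response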
T1 sequence (P38532 whole entry): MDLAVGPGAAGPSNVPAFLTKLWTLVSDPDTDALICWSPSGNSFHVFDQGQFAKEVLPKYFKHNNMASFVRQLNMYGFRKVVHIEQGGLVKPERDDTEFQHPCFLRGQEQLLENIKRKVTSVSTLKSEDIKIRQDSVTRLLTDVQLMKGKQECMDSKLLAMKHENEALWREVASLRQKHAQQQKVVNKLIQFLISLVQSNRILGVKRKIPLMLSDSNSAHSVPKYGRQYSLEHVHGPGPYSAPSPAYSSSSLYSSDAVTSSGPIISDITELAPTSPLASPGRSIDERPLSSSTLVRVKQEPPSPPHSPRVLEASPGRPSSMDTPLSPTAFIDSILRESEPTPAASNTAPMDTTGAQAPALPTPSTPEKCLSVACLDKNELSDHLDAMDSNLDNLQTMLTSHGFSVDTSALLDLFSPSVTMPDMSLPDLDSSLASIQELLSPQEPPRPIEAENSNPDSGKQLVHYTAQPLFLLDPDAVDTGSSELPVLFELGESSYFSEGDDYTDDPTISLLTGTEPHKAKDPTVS

HEK293 [2] = test: cells; format: functional, cell-based; conditions: Homo sapiens
HEK293 [3] = test: cells; format: functional, cell-based; conditions: Homo sapiens; remark: listed apart in the source
[4] = Luminescence Cell-Based Dose Retest to Confirm Inhibitors of Cancer Stem Cells. [Related pubchem assays (depositor defined):AID2717, AID2721]; format: functional; conditions: Homo sapiens
HEK293 [5] = test: NOD1 signaling inhibitors, primary screen, cell-based, luminescence, uHTS (AID 1578); format: functional; conditions: Homo sapiens
Vero [6] = test: cells; format: functional; conditions: Chlorocebus sabaeus
HEK293 [7] = test: NOD2 signaling inhibitors in MDP-stimulated cells, cell-based, uHTS, luminescence (AID 2001); format: functional; conditions: Homo sapiens
Vero [8] = test: cells; format: functional, cell-based; conditions: Chlorocebus sabaeus
HeLa = test: HeLa cell cytotoxicity, dose response, cytotoxicity control for MITF activator project, CellTiter-Glo luminescence, cherry-pick samples (AID 540259); format: functional, cell-based; conditions: Homo sapiens
[9] = Counterscreen for AddAB inhibitors: absorbance-based bacterial cell-based high throughput dose response assay for inhibitors of bacterial viability. [Related pubchem assays (depositor defined):AID435030, AID449728, AID449731, AID488942, AID488955, AID488956]; format: functional
Exodeoxyribonuclease V = molecular target: T2, Exodeoxyribonuclease V (Escherichia coli (strain K12), UniProt P04993+P07648+P08394); test: E. coli RecBCD inhibitors, dose response, counter-screen for AddAB inhibitor project, absorbance, V66 E. coli, mutant T4 phage (AID 492957); format: functional, cell-based, Escherichia coli str. K-12 substr. MG1655
T2 sequence (P04993 whole entry): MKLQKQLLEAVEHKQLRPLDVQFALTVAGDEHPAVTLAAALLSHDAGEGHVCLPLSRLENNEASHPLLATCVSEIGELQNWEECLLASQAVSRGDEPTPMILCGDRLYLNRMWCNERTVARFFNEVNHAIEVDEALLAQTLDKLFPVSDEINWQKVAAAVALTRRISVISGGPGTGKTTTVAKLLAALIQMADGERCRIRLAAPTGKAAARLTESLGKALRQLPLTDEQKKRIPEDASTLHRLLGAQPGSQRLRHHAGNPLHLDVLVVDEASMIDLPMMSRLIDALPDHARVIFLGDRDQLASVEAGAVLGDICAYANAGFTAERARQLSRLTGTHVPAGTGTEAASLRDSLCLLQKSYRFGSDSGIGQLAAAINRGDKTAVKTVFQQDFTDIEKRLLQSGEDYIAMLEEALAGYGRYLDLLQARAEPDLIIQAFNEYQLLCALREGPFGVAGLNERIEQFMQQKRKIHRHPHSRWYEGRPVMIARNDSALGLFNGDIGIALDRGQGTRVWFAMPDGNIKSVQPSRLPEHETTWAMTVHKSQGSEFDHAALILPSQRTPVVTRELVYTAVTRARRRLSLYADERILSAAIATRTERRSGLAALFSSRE
T2 sequence (P07648 whole entry): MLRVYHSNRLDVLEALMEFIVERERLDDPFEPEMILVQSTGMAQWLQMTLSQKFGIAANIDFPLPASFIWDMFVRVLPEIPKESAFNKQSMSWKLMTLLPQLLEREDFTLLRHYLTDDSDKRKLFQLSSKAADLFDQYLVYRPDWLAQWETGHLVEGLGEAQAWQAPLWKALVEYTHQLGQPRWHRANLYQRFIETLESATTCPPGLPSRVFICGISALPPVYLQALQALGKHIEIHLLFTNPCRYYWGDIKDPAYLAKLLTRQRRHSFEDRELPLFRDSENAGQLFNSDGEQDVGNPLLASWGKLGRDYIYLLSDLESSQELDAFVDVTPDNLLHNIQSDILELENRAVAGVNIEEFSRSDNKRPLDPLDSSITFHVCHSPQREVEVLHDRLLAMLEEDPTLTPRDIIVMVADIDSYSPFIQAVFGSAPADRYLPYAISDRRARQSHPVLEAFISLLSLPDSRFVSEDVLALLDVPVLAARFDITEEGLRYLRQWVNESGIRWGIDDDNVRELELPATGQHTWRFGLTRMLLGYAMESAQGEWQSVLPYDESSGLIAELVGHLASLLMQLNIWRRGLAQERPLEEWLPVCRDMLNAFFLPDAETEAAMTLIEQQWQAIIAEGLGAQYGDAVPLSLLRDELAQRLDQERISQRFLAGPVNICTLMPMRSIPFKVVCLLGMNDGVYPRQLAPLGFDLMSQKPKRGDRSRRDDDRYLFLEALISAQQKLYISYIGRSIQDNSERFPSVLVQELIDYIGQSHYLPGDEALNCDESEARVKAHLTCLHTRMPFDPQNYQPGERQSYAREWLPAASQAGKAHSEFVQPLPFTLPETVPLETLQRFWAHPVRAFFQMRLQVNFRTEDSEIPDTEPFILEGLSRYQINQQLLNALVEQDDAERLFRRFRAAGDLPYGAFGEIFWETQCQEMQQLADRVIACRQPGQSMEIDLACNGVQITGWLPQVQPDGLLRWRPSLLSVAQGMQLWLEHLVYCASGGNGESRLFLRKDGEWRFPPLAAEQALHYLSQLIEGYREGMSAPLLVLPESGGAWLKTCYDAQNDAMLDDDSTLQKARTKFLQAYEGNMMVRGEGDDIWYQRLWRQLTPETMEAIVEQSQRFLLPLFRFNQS
T2 sequence (P08394 whole entry): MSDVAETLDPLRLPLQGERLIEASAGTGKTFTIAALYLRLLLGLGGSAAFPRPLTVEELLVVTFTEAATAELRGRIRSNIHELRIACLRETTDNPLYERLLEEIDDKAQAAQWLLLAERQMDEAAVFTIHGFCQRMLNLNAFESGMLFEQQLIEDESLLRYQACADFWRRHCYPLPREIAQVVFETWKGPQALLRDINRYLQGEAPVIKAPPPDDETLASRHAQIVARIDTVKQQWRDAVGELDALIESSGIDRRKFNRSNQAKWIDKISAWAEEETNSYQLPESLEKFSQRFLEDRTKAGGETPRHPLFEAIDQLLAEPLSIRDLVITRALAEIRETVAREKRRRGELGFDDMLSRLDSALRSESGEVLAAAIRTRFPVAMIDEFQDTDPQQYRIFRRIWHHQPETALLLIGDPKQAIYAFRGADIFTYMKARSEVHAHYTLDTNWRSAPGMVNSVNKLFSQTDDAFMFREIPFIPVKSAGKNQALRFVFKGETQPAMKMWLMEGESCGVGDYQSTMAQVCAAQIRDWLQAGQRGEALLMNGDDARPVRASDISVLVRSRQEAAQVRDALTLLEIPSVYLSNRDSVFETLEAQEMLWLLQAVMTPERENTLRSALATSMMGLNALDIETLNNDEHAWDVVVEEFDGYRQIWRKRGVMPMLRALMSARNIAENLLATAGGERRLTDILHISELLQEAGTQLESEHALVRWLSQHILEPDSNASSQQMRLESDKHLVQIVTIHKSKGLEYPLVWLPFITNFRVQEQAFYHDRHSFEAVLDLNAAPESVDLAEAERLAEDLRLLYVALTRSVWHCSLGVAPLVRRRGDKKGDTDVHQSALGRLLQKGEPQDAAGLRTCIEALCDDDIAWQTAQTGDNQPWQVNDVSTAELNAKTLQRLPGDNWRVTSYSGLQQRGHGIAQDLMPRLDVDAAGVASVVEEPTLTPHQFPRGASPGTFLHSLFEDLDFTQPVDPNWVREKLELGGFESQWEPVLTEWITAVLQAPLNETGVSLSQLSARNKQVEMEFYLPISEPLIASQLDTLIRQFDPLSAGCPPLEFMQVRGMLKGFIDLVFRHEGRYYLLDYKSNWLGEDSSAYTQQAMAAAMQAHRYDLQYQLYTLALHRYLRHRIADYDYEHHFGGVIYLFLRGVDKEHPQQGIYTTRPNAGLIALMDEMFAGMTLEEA

SMILES	AC50 [4]	CC50 (Vero [6])	IC50 (Vero [8])	other results
C=C(C(=O)c1ccccc1)C(CC(=O)c1ccccc1)c1ccccc1 (stereo unspecified)	2.07 µM (active)	21 µM (active)	21.4 µM (active)	EC50 [1]: 7.91 µM (active); IC50 (HEK293 [2]): 1.42 µM (active); IC50 (HEK293 [3]): > 20 µM (inactive); EC50 (HEK293 [5]): 8.67 µM (active); IC50 (HEK293 [7]): 4.04 µM (active)
COc1ccc(-c2nn(-c3ccccc3)cc2C(=O)NC(=S)NNC(=O)c2ccncc2)cc1		16.4 µM (active)	16.6 µM (active)	
CC1(C)CN=c2s/c(=C\c3ccc(Cl)cc3)c(=O)n2C1				AC50 (HeLa): 277 µM (active)
O=C1CCC(=O)N(O)CCCCCNC(=O)CCC(=O)N(O)CCCCCNC(=O)CCC(=O)N(O)CCCCCN1 [NOCARDAMINE]				IC50 [9]: > 119 µM (inactive); IC50 (Exodeoxyribonuclease V): > 119 µM (inactive)
C[C@]12CC[C@H](O)C[C@H]1CC[C@@H]1[C@@H]2CC[C@]2(C)[C@@H](C3=CC(=O)OC3)[C@@H](O)C[C@]12O [GITOXIGENIN]	2.58 µM (active)	6.88 µM (active)	> 12.5 µM (active)	
